Results published in patent US20230145342A1, “COMBINATORY TREATMENT” (AALTO UNIVERSITY FOUNDATION SR, priority 2020, published 2023).
Entries after “also recorded” stand apart in the source; their conditions may differ.

Tests used:
Pseudomonas aeruginosa = test: RNA sequencing / Gene Set Enrichment Analysis with and without P[5]a; type: cell-based; conditions: bacterial RNA with vs without P[5]a
From the text: Changes in gene expression levels are grouped in specific “gene sets”, which group all genes related to a specific function, for instance biofilm formation.
Pseudomonas aeruginosa is known to be one of the most problematic pathogenic micro-organisms. Indeed, in a laboratory environment, P. aeruginosa is resistant to nearly all antibiotics within a period of 3 to 4 days. Comparing the sequencing results of the bacterial RNA, with and without a pillarene[5]a (P[5]a, CAS No. 1351445-28-7), allowed the inventors to identify the processes that are affected by comparison with pre-determined gene set terms from the “KEGG pathway analysis” and the “GO Ontology” (see FIG. 1). These gene sets contain all the genes associated with a certain term, for instance “Biofilm”, and the inventors referenced all the genes affected by P[5]a, to these gene sets.

P. aeruginosa PAO1 [1] = test: Antibiotic resistance buildup, daily MIC over 14 consecutive days; type: cell-based, Pseudomonas aeruginosa
From the text: Area below the yellow line means that the bacterium is classified as susceptible to the antibiotic. The area in between yellow and red means that the bacterium is intermediate susceptible to the antibiotic. The area above the red line means that the bacterium is classified as resistant to the antibiotic (According to the “Performance Standards for Antimicrobial Susceptibility Testing”, which is maintained by the Clinical and Laboratory Standards Institute).
Because of this, a combined administration of P[5]a with a variety of antibiotics was tested. MIC values with two different antibiotics, meropenem and cefepime (FIG. 2) were tested, over a period of 14 consecutive days (which more than surpasses the length of normal treatments, 7-10 days), when administered together with and without 2.5 mM P[5]a.
In this experiment, the minimum inhibitory concentration MIC was analyzed daily for 14 consecutive days, and the highest MIC values (so the highest concentration of antibiotic where the bacteria still grew) was used for the next day. This way, the buildup of resistance over time can be monitored. In FIG. 2, the area below the yellow line means that the bacterium is classified as susceptible to the antibiotic, the area in between yellow and red means that the bacterium is intermediate susceptible to the antibiotic and the area above the red line means that the bacterium is classified as resistant to the antibiotic (According to the “Performance Standards for Antimicrobial Susceptibility Testing”, which is maintained by the Clinical and Laboratory Standards Institute).
(§1) The effect of P[5]a on encountering resistance development in a pathogenic Gram-negative bacterium, Pserudomonas aeruginosa, strain PA01 was studied over 14-day period. The development of resistance over 14 continuous days by the pathogen PAO1 towards treatment with four clinically relevant antibiotics (meropenem, cefepime, aztreonam and tobramycin) and P[5]a was compared. […] In all antibiotic treatments, reduced susceptibility was observed from day 4 onwards, with complete resistance to all treatments after 12 days.
The effect of P[5]a on the enhancement of the penetration of coadministered antibiotics having intracellular targets (aztreonam, cefepime, meropenem and tobramycin) was studied over 14-day period in a pathogenic Gram-negative bacterium, Pserudomonas aeruginosa, strain PA01. […] MIC values were categorized in three groups according to the Clinical and Laboratory Standards Institute: susceptible, intermediate susceptible and resistant.

P. aeruginosa PAO1 [2] = test: Pyocyanin toxin production followed over 14 days; type: cell-based, Pseudomonas aeruginosa; conditions: for pyocyanin toxin formation: throughout 14 days
From the text: as §1

[3] = test system: multidrug resistant P. aeruginosa strain PA 5539; test: MIC of antibiotics without and with P[5]a, Luria broth (sensitizing effect test); type: cell-based, Pseudomonas aeruginosa; conditions: with vs without P[5]a
Description: Values in blue, yellow and orange indicate the bacterium is categorized as “susceptible”, “intermediate susceptible” and “resistant”, respectively, according to the “Performance Standards for Antimicrobial Susceptibility Testing”, which is maintained by the Clinical and Laboratory Standards Institute.
So, it was tested whether P[5]a could sensitize (increase the efficacy of) already resistant P. aeruginosa strains PA 5834 (FIG. 4) and PA 5539 (FIG. 5), that are resistant to a wide variety of antibiotics. To test this, two MDR P. aeruginosa strains from clinical isolates were used. These isolates were obtained from patients in the Meilahti hospital (Helsinki, Finland). The antibiotics used, and their different mechanisms of actions, are described in Table 2.
(§2) In FIG. 4 with P. aeruginosa strain PA 5834, P[5]a made the bacterium classify as “susceptible” again, whereas without P[5]a it was fully “resistant” to the antibiotics ceftazidime and cefepime (even growing in the highest concentration we tested). This could have major implications, because there have been many encounters already of “Pan-Drug resistant bacteria” bacteria that are classified as “resistant” to all known antibiotics. They are basically untreatable by current standards. P[5]a Virulence inhibitors, might make those bacteria susceptible again for treatment. In FIG. 5 with P. aeruginosa strain PA 5539, the overall resistance profile of the bacterium was much lower. […] Further testing was done on six resistant P. aeruginosa strains from the Helsinki hospital collection, PA 5550, PA 5842, PA 5827, PA 5832, PA 5834 and PA 5539 with four different antibiotics (amikacin, cefepime, ceftazidime and meropenem).

[4] = test system: resistant P. aeruginosa strains PA 5550, PA 5842, PA 5827, PA 5832, PA 5834 and PA 5539; test: MIC of four antibiotics in presence or absence of P[5]a, Mueller broth; type: cell-based, Pseudomonas aeruginosa; conditions: six resistant strains, presence vs absence of P[5]a
From the text: as §2

[5] = test system: Pserudomonas aeruginosa, strain PA01; test: Biofilm formation; type: cell-based, Pseudomonas aeruginosa; conditions: P[5]a in high concentrations
Description: The effect of P[5]a on the formation of biofilm by a pathogenic Gram-negative bacterium, Pserudomonas aeruginosa, strain PA01 was measured.
Biofilm is, alongside pyocyanin production, an important indicator of virulence in P. aeruginosa.

[6] = Analytical ultracentrifuge sedimentation velocity analysis of P[5]a with LPS; type: binding, Pseudomonas aeruginosa; conditions: 135 μM P[5]a and 35 μM LPS, UV absorbance at 305 nm
Description: A clear initial peak of unbound P[5]a can be observer at low molecular weight (2260 Da), followed by a long and polydisperse collection of peaks, ranging from low molecular weight (S), to very high molecular weight (60.000 kDa) See Example 6.
The interaction of P[5]a with lipopolysaccharides of P. aeruginosa, strain PA10 was measured using AUC.
Analytical ultracentrifugation (AUC) is based on sedimentation of colloidal particles in a centrifugal field. During centrifugation particles move toward the bottom of the measuring cell. This movement leads to redistribution of particles along the measuring cell, which in turn can be expressed as a change in concentration along the measuring cell. The absorbance detector was used to follow the changes caused by centrifugation (absorbance is proportional to concentration). In simple words, in AUC the inventors measure how concentration changes during centrifugation, so they collect concentration profiles. Interaction between particles can be measured as a result of changes in the sedimentation profiles. […]
The spectra of both P[5]a and LPS from P. aeruginosa were first analysed separately (see FIG. 12 a and b). […] Because only the sedimentation of P[5]a was detected at 305 nm, the inventors were certain that any changes observed in the sedimentation profile, come from interactions between P[5]a and other particles. […]

[7] = test system: MDR resistant clinical isolates; test: Coadministered antibiotics with P[5]a in MDR resistant clinical isolates (Example 8); type: cell-based
From the text: The effect of P[5]a on the penetration and efficacy of coadministered antibiotics Amikacin (a), Cefepime (b), Ceftazidime (c) and Meropenem (d) in MDR resistant clinical isolates were studied.

Q: Which “bacterial antibiotic resistance genes (MexCD-OprJ, MexAB-OprM, mexXY)” value (Pseudomonas aeruginosa) does the source give for `C[N+](C)(C)CCOc1cc2c(OCC[N+](C)(C)C)cc1Cc1cc(OCC[N+](C)(C)C)c(cc1OCC[N+](C)(C)C)Cc1cc(OCC[N+](C)(C)C)c(cc1OCC[N+](C)(C)C)Cc1cc(OCC[N+](C)(C)C)c(cc1OCC[N+](C)(C)C)Cc1cc(OCC[N+](C)(C)C)c(cc1OCC[N+](C)(C)C)C2.[Br-].[Br-].[Br-].[Br-].[Br-].[Br-].[Br-].[Br-].[Br-].[Br-]` [P[5]a, 4,9,14,19,24,26,28,30,32,34-Deca[2-(trimethylammonio)ethoxy]hexacyclo[21.2.2.2^3,6.2^8,11.2^13,16.2^18,21]pentatriaconta1(25),3,5,8,10,13,15,18,20,23,26,28,30,32,34-pentadecaene ⋅ 10bromide] here?
A: Its value is “significantly down-regulates”.

Q: What about the “gene sets associated with virulence factors (Biofilm, Quorum Sensing, Bioverdine biosynthetic process, Biosynthesis of Secondary Metabolites)” value (Pseudomonas aeruginosa; KEGG and GO gene sets) of the same compound?
A: Its value is “downregulated”.

Q: And the direct antimicrobial properties (P. aeruginosa PAO1 [1])?
A: Its direct antimicrobial properties is “lacks direct antimicrobial properties”.

Q: And the “buildup of resistance to meropenem and cefepime when P[5]a is added” value (P. aeruginosa PAO1 [1]; 2.5 mM P[5]a, 14 consecutive days)?
A: The value was “significantly reduced”.

Q: And the “resistance development towards P[5]a (decrease of effectivity of toxin inhibition)” value (P. aeruginosa PAO1 [2]; 14-day period)?
A: Its value is “does not encounter resistance development; also recorded: no observable decrease of effectivity”.

Q: And the pyocyanin toxin formation (P. aeruginosa PAO1 [2])?
A: Its pyocyanin toxin formation is “successfully suppressed”.

Q: What about the bacterial viability (P. aeruginosa PAO1 [2]; throughout 14 days of P[5]a treatment) of the same compound?
A: The bacterial viability was “no decrease”.

Q: What about the pyocyanin toxin formation (P. aeruginosa PAO1 [2]; listed as P5a) of the same compound?
A: The pyocyanin toxin formation was “very efficient in suppressing”.

Q: And the “sensitizing effect on antibiotics” value [3]?
A: The value was “sensitizing effect could be seen with nearly all antibiotics”.

Q: What about the “sensitizing effects on amikacin, cefepime, ceftazidime and meropenem” value [4] of the same compound?
A: Its value is “In all cases the sensitizing effects were observed”.

Q: And the biofilm formation [5]?
A: Its biofilm formation is “significantly reduced”.

Q: And the “interaction with LPS” value [6]?
A: The value was “strong interaction; also recorded: capable of interacting with multiple LPS particles”.

Q: What about the “penetration and efficacy of coadministered antibiotics Amikacin, Cefepime, Ceftazidime and Meropenem” value [7] of the same compound?
A: Its value is “enhances”.
